The numbers were not newly measured in patent US11022607B2, “Compound-carrier systems for assays in nematodes” (Assistance Publique—Hôpitaux de Paris, priority 2013, dated 2021), which cites them from elsewhere.

The test system of this series is C. elegans. The settings on record: 25 ml of liposomes containing 50 mg of uranin; in 3 h.

Regarding `O=C([O-])c1ccccc1-c1c2ccc(=O)cc-2oc2cc([O-])ccc12.[Na+].[Na+]` [uranin], the “amount of fluorescent dye absorption, compared with worms administered dye by conventional methods” value is on record as 100 fold.
